Data on ten compounds can be found in ChEMBL document CHEMBL1201862, “PubChem BioAssay data set” (2004).

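Assay format: 96-well plates, 48-hour exposure. GI50 = concentration required for 50% inhibition of growth.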 Calls of active or inactive are those of the source. Rule as the data show it: active = GI50 up to about 1.1 µM and inactive = higher.

Some test systems named below: 786-0; A498; ACHN; COLO 205; EKVX; HOP-62; K562; KM12; M14; MDA-MB-231; MDA-MB-435; MDA-N; Malme-3M; NCI-H23; OVCAR-4; RXF 393; SK-MEL-2; UACC-257; UACC-62; HL-60.
Assay in all cases: DTP human tumour cell line panel, 48 h

`CC(C)[Si](OC/C(=C/COC(C)(C)C)[C@H]1CC=C(C(=O)c2ccccc2N2CN(C)C(=O)N(C)C2)C1)(C(C)C)C(C)C`: the GI50 – broadly, the concentration giving 50% growth inhibition – in the experiment with 786-0 was 6.61 µM (inactive); in the experiment with A498 it was 19.7 µM (inactive); in the experiment on ACHN, 14.7 µM (inactive); with COLO 205 it was 15.7 µM (inactive); in the experiment on EKVX, 15.9 µM (inactive); with HOP-62, 16 µM (inactive). In addition, the GI50 is 1.08 µM (active) in the experiment on K562; 13.7 µM (inactive) with KM12; 12.2 µM (inactive) with M14; 11.9 µM (inactive) in the experiment with MDA-MB-231; 6.04 µM (inactive) in the experiment with MDA-MB-435; 2.18 µM (inactive) with MDA-N. For the same compound, the GI50 with Malme-3M was 7.94 µM (inactive); with NCI-H23, 15.2 µM (inactive); with OVCAR-4, 13.8 µM (inactive); with RXF 393, 4.02 µM (inactive); with SK-MEL-2 it was 13.6 µM (inactive); in the experiment with UACC-257, 6.28 µM (inactive). Also, in the experiment with UACC-62, the GI50 was 10.8 µM (inactive).

For the compound `Clc1ccc(OCc2nnc(CCCCCCCCc3nnc(COc4ccc(Cl)cc4)n3Nc3ccccc3)n2Nc2ccccc2)cc1`, the GI50 with 786-0 was 15.3 µM (inactive); in the experiment with A498, 62.5 µM (inactive); with ACHN, 1.16 µM (inactive); with COLO 205 it was 0.318 µM (active); in the experiment on EKVX it was 12.9 µM (inactive); in the experiment on HOP-62, 1.08 µM (active). Moreover, the GI50 in the experiment on K562 is 0.343 µM (active); with KM12 it was 11.2 µM (inactive); in the experiment on M14, 2.08 µM (inactive); in the experiment with MDA-MB-231, 26.2 µM (inactive); in the experiment with MDA-MB-435 it was 2.22 µM (inactive); with MDA-N it was 1.6 µM (inactive). Also, the GI50 in the experiment on Malme-3M is 12.5 µM (inactive); in the experiment with NCI-H23, 18.2 µM (inactive); in the experiment with OVCAR-4 it was 15.7 µM (inactive); in the experiment with RXF 393, 21.8 µM (inactive); with SK-MEL-2, 16.1 µM (inactive); in the experiment on UACC-257 it was 7.35 µM (inactive). Besides, the GI50 in the experiment on UACC-62 is 0.895 µM (active).

For `CC1(C)OC(=S)N(c2ccccc2)C12C=Cc1cc3ccccc3cc1O2` (stereo unspecified), the GI50 is > 100 µM (inactive) in the experiment with 786-0; > 100 µM (inactive) in the experiment with A498; > 100 µM (inactive) in the experiment on ACHN; > 100 µM (inactive) in the experiment on COLO 205; > 100 µM (inactive) in the experiment on EKVX; 16.6 µM (inactive) with HL-60. The GI50 was > 100 µM (inactive) with HOP-62; 41.3 µM (inactive) with K562; > 100 µM (inactive) in the experiment with KM12; > 100 µM (inactive) in the experiment with M14; > 100 µM (inactive) in the experiment on MDA-MB-231; > 100 µM (inactive) with MDA-MB-435. Also, the GI50 in the experiment with MDA-N, in the experiment with NCI-H23, in the experiment with OVCAR-4, in the experiment on RXF 393, with SK-MEL-2 and in the experiment on UACC-257 was > 100 µM (inactive) in each case. In the experiment with UACC-62, the GI50 was > 100 µM (inactive).

Turning to `C/C=C\C1OC1(C)c1cc(=O)c2c(C)cc3c(c2o1)C(=O)c1c(O)c(C2CC(C)(N(C)C)C(OC(C)=O)C(C)O2)cc(C2CC(N(C)C)C(O)C(C)O2)c1C3=O` (stereo unspecified), the GI50 is < 0.00375 µM (active) in the experiment on 786-0; 0.00875 µM (active) with A498; < 0.00375 µM (active) in the experiment with ACHN; < 0.00375 µM (active) in the experiment on COLO 205; 0.00836 µM (active) in the experiment on EKVX; < 0.00375 µM (active) with HOP-62. In addition, the GI50 with K562 was < 0.00375 µM (active); in the experiment with KM12 it was 0.0042 µM (active); in the experiment on M14, < 0.00375 µM (active); with MDA-MB-231, 0.0067 µM (active); in the experiment on MDA-MB-435 it was 0.00449 µM (active); in the experiment with MDA-N it was 0.0043 µM (active). Besides, the GI50 is 0.0124 µM (active) with Malme-3M; < 0.00375 µM (active) in the experiment with NCI-H23; 0.00461 µM (active) with OVCAR-4; < 0.00375 µM (active) with RXF 393; 0.00463 µM (active) in the experiment on SK-MEL-2; 0.00984 µM (active) with UACC-257. For the same compound, in the experiment with UACC-62, the GI50 was < 0.00375 µM (active).

As for `O=C(O)COCC(=O)N(CCOCCN(Cc1ccccc1)C(=O)COCC(=O)O)Cc1ccccc1`, the GI50 with 786-0, in the experiment with A498, with ACHN, in the experiment with COLO 205, with EKVX and in the experiment on HL-60 was > 100 µM (inactive) throughout. Further, the GI50 with HOP-62, with K562, in the experiment with KM12, in the experiment on M14, in the experiment on MDA-MB-231 and in the experiment with MDA-MB-435 was > 100 µM (inactive) throughout. The GI50 in the experiment on MDA-N, in the experiment with Malme-3M, with NCI-H23, with RXF 393, in the experiment with SK-MEL-2 and with UACC-257 was > 100 µM (inactive) throughout. For the same compound, the GI50 in the experiment with UACC-62 was > 100 µM (inactive).

For the compound `COc1ccc(Cn2nc(OCc3ccccc3)c3cc([N+](=O)[O-])ccc32)cc1`, the GI50 with 786-0, in the experiment with A498, with ACHN, with HL-60, in the experiment with HOP-62 and in the experiment with K562 was > 100 µM (inactive) each time. Moreover, the GI50 with KM12, with M14, in the experiment on MDA-MB-231, in the experiment with MDA-MB-435, in the experiment on MDA-N and in the experiment on Malme-3M was > 100 µM (inactive) each time. Moreover, the GI50 in the experiment on NCI-H23, with RXF 393, in the experiment on SK-MEL-2, in the experiment on UACC-257 and in the experiment with UACC-62 was > 100 µM (inactive) throughout.

Consider `Fc1ccc(NCn2nc(COc3ccccc3Cl)n(/N=C/c3ccc(-c4ccc(Cl)cc4Cl)o3)c2=S)cc1Cl`, for which the GI50 with 786-0 was 27 µM (inactive); in the experiment with A498, 16.1 µM (inactive); with ACHN, 29.5 µM (inactive); with EKVX, > 100 µM (inactive); with HL-60 it was 15.8 µM (inactive); in the experiment with HOP-62 it was 52.4 µM (inactive). In addition, the GI50 in the experiment with K562 is 15.4 µM (inactive); with KM12, 26 µM (inactive); with M14, 28.5 µM (inactive); in the experiment with MDA-MB-231, 44.4 µM (inactive); with MDA-MB-435, 41.4 µM (inactive); in the experiment with MDA-N, 38.5 µM (inactive). For the same compound, the GI50 with NCI-H23 is 27.4 µM (inactive); in the experiment with OVCAR-4, 53.2 µM (inactive); in the experiment on RXF 393, 21.5 µM (inactive); in the experiment with SK-MEL-2, 25 µM (inactive); in the experiment with UACC-257 it was 41.5 µM (inactive).

In the case of `COC(=O)[C@@H](NC(=O)c1ccc(CNC(=O)/C(C)=C/c2ccccc2)cc1)C(C)C`, the GI50 in the experiment on 786-0 was > 100 µM (inactive); in the experiment on A498 it was > 100 µM (inactive); in the experiment on ACHN, > 100 µM (inactive); in the experiment on COLO 205 it was 67.9 µM (inactive); in the experiment with EKVX, 35.4 µM (inactive); with HOP-62, > 100 µM (inactive). Further, the GI50 in the experiment with K562 is > 100 µM (inactive); in the experiment with KM12, 36.1 µM (inactive); with M14, 61.2 µM (inactive); in the experiment with MDA-MB-231, > 100 µM (inactive); with MDA-MB-435 it was 70 µM (inactive); in the experiment on MDA-N, 66.5 µM (inactive). Besides, the GI50 in the experiment with Malme-3M is > 100 µM (inactive); in the experiment on NCI-H23 it was > 100 µM (inactive); in the experiment with OVCAR-4, 56.8 µM (inactive); in the experiment on RXF 393, 79.6 µM (inactive); with SK-MEL-2, 51.1 µM (inactive); with UACC-257 it was 14.2 µM (inactive). In the experiment with UACC-62, the GI50 was 70 µM (inactive).

As for `Cn1c(=O)c2c(-c3ccccc3)onc2n(C)c1=O`, the GI50 was 29 µM (inactive) in the experiment on 786-0; 64.1 µM (inactive) with A498; 31.9 µM (inactive) in the experiment with ACHN; 43.2 µM (inactive) in the experiment with COLO 205; 38.4 µM (inactive) in the experiment on EKVX; 17.1 µM (inactive) in the experiment on HOP-62. Further, the GI50 was 30.3 µM (inactive) with K562; 34 µM (inactive) in the experiment with KM12; 16.9 µM (inactive) with M14; 49.9 µM (inactive) in the experiment on MDA-MB-231; 44.5 µM (inactive) in the experiment with MDA-MB-435; 50.2 µM (inactive) in the experiment on MDA-N. In addition, the GI50 in the experiment on Malme-3M is 46.8 µM (inactive); in the experiment on NCI-H23 it was 14 µM (inactive); with OVCAR-4, 43.2 µM (inactive); in the experiment on RXF 393, 21.3 µM (inactive); in the experiment with SK-MEL-2, 15.8 µM (inactive); in the experiment with UACC-257 it was 31.3 µM (inactive). Moreover, in the experiment with UACC-62, the GI50 was 21.7 µM (inactive).

Turning to `O=C1CSC2(CC(/C=C/c3cccc(Br)c3)=NN2c2cccc(S(=O)(=O)O)c2)N1c1nc2ccccc2s1` (stereo unspecified), the GI50 in the experiment on 786-0, in the experiment with A498, with ACHN, in the experiment with COLO 205, in the experiment on EKVX and with HOP-62 was > 100 µM (inactive) each time. Moreover, the GI50 in the experiment on K562 is 42.8 µM (inactive); with KM12 it was > 90.8 µM (inactive); in the experiment on M14 it was > 100 µM (inactive); with MDA-MB-231 it was > 100 µM (inactive); in the experiment on MDA-MB-435 it was 62.4 µM (inactive); with MDA-N it was > 100 µM (inactive). Moreover, the GI50 is > 100 µM (inactive) with Malme-3M; > 100 µM (inactive) in the experiment on NCI-H23; > 77.8 µM (inactive) in the experiment with OVCAR-4; > 100 µM (inactive) in the experiment with RXF 393; > 100 µM (inactive) in the experiment with SK-MEL-2; > 100 µM (inactive) in the experiment on UACC-257. Besides, the GI50 in the experiment on UACC-62 was 80.2 µM (inactive).
